Laboratory results taken from patent US20260191968A1, “PROTAC DEGRADERS OF MLLT1 AND/OR MLLT3” (DARK BLUE THERAPEUTICS LTD, priority 2024, published 2026).

Target: T1, MLLT1 (Homo sapiens, UniProt Q03111)
T1 construct: host or cells: MV4-11
T1 sequence (Q03111 1-559): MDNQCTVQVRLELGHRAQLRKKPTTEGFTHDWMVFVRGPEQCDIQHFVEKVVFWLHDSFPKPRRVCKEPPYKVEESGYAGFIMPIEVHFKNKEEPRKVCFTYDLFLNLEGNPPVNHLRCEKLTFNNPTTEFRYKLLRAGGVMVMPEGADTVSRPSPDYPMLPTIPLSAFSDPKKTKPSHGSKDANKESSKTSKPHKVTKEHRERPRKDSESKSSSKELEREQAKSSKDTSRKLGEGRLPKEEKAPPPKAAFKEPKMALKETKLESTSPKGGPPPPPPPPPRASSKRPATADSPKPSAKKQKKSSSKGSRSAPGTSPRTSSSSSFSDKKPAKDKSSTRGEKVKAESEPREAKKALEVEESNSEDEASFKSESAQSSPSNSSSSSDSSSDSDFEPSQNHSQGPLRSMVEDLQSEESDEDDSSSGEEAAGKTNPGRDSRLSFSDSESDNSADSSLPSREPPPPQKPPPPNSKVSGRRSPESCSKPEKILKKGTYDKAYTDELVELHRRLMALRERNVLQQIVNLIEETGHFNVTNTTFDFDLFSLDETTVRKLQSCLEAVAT
Test: MLLT1 degradation assay in MV4-11 cells (JESS chemiluminescent detection), three concentrations, 24 h
Assay type: cell-based
Conditions: with respect to DMSO control
Experimental: MLLT1 degradation efficacy of compounds were tested in an automated chemiluminescent detection system (JESS, Cat #004-650). […] 10 mM DMSO stocks were prepared, and cells were treated with three concentrations of test compounds viz. 1000, 100 and 10 nM at a final DMSO concentration of 0.1% and incubated for 24 h at 37° C., 5% CO2. […] Post run, data were analysed using “Compass for SW” software for chemiluminescent detection. The peak area for each band was used for the calculation of MLLT1 degradation with respect to DMSO control. Data is shown as “MLLT1% degradation”.

| MLLT1% Degradation @ 0.1 μM | SMILES | MLLT1% Degradation @ 0.01 μM | MLLT1% Degradation @ 1 μM |
| --- | --- | --- | --- |
| A (Category A: A ≥ 75% degradation) | CN1CCC[C@@H]1c1cc2cnc(NC(=O)c3ccc(OC4CCN(CC5CCN(c6cc7c(cc6F)C(=O)N(C6CCC(=O)NC6=O)C7=O)CC5)CC4)cc3)cc2[nH]1 (stereo partly drawn) [Example 184, 4-((1-((1-(2-(2,6-dioxopiperidin-3-yl)-6-fluoro-1,3-dioxoisoindolin-5-yl)piperidin-4-yl)methyl)piperidin-4-yl)oxy)-N-(2-((R)-1-methylpyrrolidin-2-yl)-1H-pyrrolo[3,2-c]pyridin-6-yl)benzamide] | B (Category B: 50% ≤ B < 75% degradation) | A (Category A: A ≥ 75% degradation) |
| A (Category A: A ≥ 75% degradation) | CN1CCC[C@@H]1c1[nH]c2cc(NC(=O)c3ccc(OCCC4CCN(c5cccc6c5CN(C5CCC(=O)NC5=O)C6=O)CC4)c(F)c3)ncc2c1Cl (stereo partly drawn) [Example 229, N-(3-chloro-2-((R)-1-methylpyrrolidin-2-yl)-1H-pyrrolo[3,2-c]pyridin-6-yl)-4-(2-(1-(2-(2,6-dioxopiperidin-3-yl)-1-oxoisoindolin-4-yl)piperidin-4-yl)ethoxy)-3-fluorobenzamide] | A (Category A: A ≥ 75% degradation) | A (Category A: A ≥ 75% degradation) |
| A (Category A: A ≥ 75% degradation) | CN1CCC[C@@H]1c1cc2cnc(NC(=O)c3ccc(CCCC#Cc4cc5c(cc4F)C(=O)N(C4CCC(=O)NC4=O)C5)cc3)cc2[nH]1 (stereo partly drawn) [Example 106, 4-(5-(2-(2,6-dioxopiperidin-3-yl)-6-fluoro-1-oxoisoindolin-5-yl)pent-4-yn-1-yl)-N-(2-((R)-1-methylpyrrolidin-2-yl)-1H-pyrrolo[3,2-c]pyridin-6-yl)benzamide] | B (Category B: 50% ≤ B < 75% degradation) | A (Category A: A ≥ 75% degradation) |
| A (Category A: A ≥ 75% degradation) | CN1CCC[C@@H]1c1cc2cnc(NC(=O)c3ccc(OC4CC5(CCN(c6cccc7c6CN(C6CCC(=O)NC6=O)C7=O)CC5)C4)cc3F)cc2[nH]1 (stereo partly drawn) [Example 200, 4-((7-(2-(2,6-dioxopiperidin-3-yl)-1-oxoisoindolin-4-yl)-7-azaspiro[3.5]nonan-2-yl)oxy)-2-fluoro-N-(2-((R)-1-methylpyrrolidin-2-yl)-1H-pyrrolo[3,2-c]pyridin-6-yl)benzamide] | B (Category B: 50% ≤ B < 75% degradation) | A (Category A: A ≥ 75% degradation) |
| A (Category A: A ≥ 75% degradation) | CN1CCC[C@@H]1c1[nH]c2cc(NC(=O)c3ccc(CCCCC#Cc4cccc5c4CN(C4CCC(=O)NC4=O)C5=O)nc3)ncc2c1Cl (stereo partly drawn) [Example 71, N-(3-chloro-2-((R)-1-methylpyrrolidin-2-yl)-1H-pyrrolo[3,2-c]pyridin-6-yl)-6-(6-(2-(2,6-dioxopiperidin-3-yl)-1-oxoisoindolin-4-yl)hex-5-yn-1-yl) nicotinamide] | A (Category A: A ≥ 75% degradation) | B (Category B: 50% ≤ B < 75% degradation) |
| A (Category A: A ≥ 75% degradation) | CN1CCC[C@@H]1c1cc2cnc(NC(=O)c3ccc(CCCCC#Cc4cccc5c4CN(C4CCC(=O)NC4=O)C5=O)nc3)cc2[nH]1 (stereo partly drawn) [Example 10, 6-(6-(2-(2,6-dioxopiperidin-3-yl)-1-oxoisoindolin-4-yl)hex-5-yn-1-yl)-N-(2-((R)-1-methylpyrrolidin-2-yl)-1H-pyrrolo[3,2-c]pyridin-6-yl) nicotinamide] | A (Category A: A ≥ 75% degradation) | B (Category B: 50% ≤ B < 75% degradation) |
| A (Category A: A ≥ 75% degradation) | Cc1cc(CCOc2ccc(C(=O)Nc3cc4[nH]c([C@H]5CCCN5C)cc4cn3)c(F)c2)ccc1-c1cccc2c1CN(C1CCC(=O)NC1=O)C2=O (stereo partly drawn) [Example 208, 4-(4-(2-(2,6-dioxopiperidin-3-yl)-1-oxoisoindolin-4-yl)-3-methylphenethoxy)-2-fluoro-N-(2-((R)-1-methylpyrrolidin-2-yl)-1H-pyrrolo[3,2-c]pyridin-6-yl)benzamide] | A (Category A: A ≥ 75% degradation) | A (Category A: A ≥ 75% degradation) |
| A (Category A: A ≥ 75% degradation) | CN1CCC[C@@H]1c1cc2cnc(NC(=O)c3ccc(CCCN4CCC(c5cccc6c5CN(C5CCC(=O)NC5=O)C6=O)CC4)cc3)cc2[nH]1 (stereo partly drawn) [Example 198, 4-(3-(4-(2-(2,6-dioxopiperidin-3-yl)-1-oxoisoindolin-4-yl)piperidin-1-yl)propyl)-N-(2-((R)-1-methylpyrrolidin-2-yl)-1H-pyrrolo[3,2-c]pyridin-6-yl)benzamide] | C (Category C: 25% ≤ C < 50% degradation) | A (Category A: A ≥ 75% degradation) |

| SMILES | MLLT1% Degradation @ 0.1 μM | MLLT1% Degradation @ 0.01 μM | MLLT1% Degradation @ 1 μM |
| --- | --- | --- | --- |
| Cc1cc(OCCC2CCN(c3cccc4c3CN(C3CCC(=O)NC3=O)C4=O)CC2)ccc1C(=O)Nc1cc2[nH]c([C@H]3CCCN3C)cc2cn1 (stereo partly drawn) [Example 204, 4-(2-(1-(2-(2,6-dioxopiperidin-3-yl)-1-oxoisoindolin-4-yl)piperidin-4-yl)ethoxy)-2-methyl-N-(2-((R)-1-methylpyrrolidin-2-yl)-1H-pyrrolo[3,2-c]pyridin-6-yl)benzamide] | B (Category B: 50% ≤ B < 75% degradation) | C (Category C: 25% ≤ C < 50% degradation) | B (Category B: 50% ≤ B < 75% degradation) |
| CN1CCC[C@@H]1c1cc2cnc(NC(=O)c3ccc(N4CCC(CC#Cc5ccc6c(c5)CN(C5CCC(=O)NC5=O)C6=O)CC4)nc3)cc2[nH]1 (stereo partly drawn) [Example 224, 6-(4-(3-(2-(2,6-dioxopiperidin-3-yl)-1-oxoisoindolin-5-yl)prop-2-yn-1-yl)piperidin-1-yl)-N-(2-((R)-1-methylpyrrolidin-2-yl)-1H-pyrrolo[3,2-c]pyridin-6-yl)nicotinamide] | C (Category C: 25% ≤ C < 50% degradation) | C (Category C: 25% ≤ C < 50% degradation) | C (Category C: 25% ≤ C < 50% degradation) |
| CN1CCC[C@@H]1c1cc2cnc(NC(=O)c3ccc(OCCC4CCN(c5cccc6c5C(=O)N(C5CCC(=O)NC5=O)C6=O)CC4)nc3)cc2[nH]1 (stereo partly drawn) [Example 179, 6-(2-(1-(2-(2,6-dioxopiperidin-3-yl)-1,3-dioxoisoindolin-4-yl)piperidin-4-yl)ethoxy)-N-(2-((R)-1-methylpyrrolidin-2-yl)-1H-pyrrolo[3,2-c]pyridin-6-yl)nicotinamide] | B (Category B: 50% ≤ B < 75% degradation) | B (Category B: 50% ≤ B < 75% degradation) | B (Category B: 50% ≤ B < 75% degradation) |
| CN1CCC[C@@H]1c1cc2cnc(NC(=O)c3ccc(N4CCN(CC5CCN(c6ccc7c(c6)CN(C6CCC(=O)NC6=O)C7=O)CC5)CC4)cc3)cc2[nH]1 (stereo partly drawn) [Example 222, 4-(4-((1-(2-(2,6-dioxopiperidin-3-yl)-1-oxoisoindolin-5-yl)piperidin-4-yl)methyl)piperazin-1-yl)-N-(2-((R)-1-methylpyrrolidin-2-yl)-1H-pyrrolo[3,2-c]pyridin-6-yl)benzamide] | B (Category B: 50% ≤ B < 75% degradation) | C (Category C: 25% ≤ C < 50% degradation) | B (Category B: 50% ≤ B < 75% degradation) |
| CN1CCC[C@@H]1c1cc2cnc(NC(=O)c3ccc(N4CCN(CC5CCN(c6ccc(C(=O)N[C@H]7CCC(=O)NC7=O)nc6)CC5)CC4)cc3)cc2[nH]1 [Example 181, N—((S)-2,6-dioxopiperidin-3-yl)-5-(4-((4-(4-((2-((R)-1-methylpyrrolidin-2-yl)-1H-pyrrolo[3,2-c]pyridin-6-yl)carbamoyl)phenyl)piperazin-1-yl)methyl)piperidin-1-yl)picolinamide] | C (Category C: 25% ≤ C < 50% degradation) | D (Category D: D < 25% degradation) | B (Category B: 50% ≤ B < 75% degradation) |
| CN1CCC[C@@H]1c1cc2cnc(NC(=O)c3ccc(N4CCC(C5CCN(c6cccc7c6C(=O)N(C6CCC(=O)NC6=O)C7=O)CC5)CC4)nc3)cc2[nH]1 (stereo partly drawn) [Example 152, 6-(1′-(2-(2,6-dioxopiperidin-3-yl)-1,3-dioxoisoindolin-4-yl)-[4,4′-bipiperidin]-1-yl)-N-(2-((R)-1-methylpyrrolidin-2-yl)-1H-pyrrolo[3,2-c]pyridin-6-yl)nicotinamide] | B (Category B: 50% ≤ B < 75% degradation) | D (Category D: D < 25% degradation) | A (Category A: A ≥ 75% degradation) |
